The source of these data is patent US12540131B2 (Merck Sharp & Dohme LLC, priority 2019, dated 2026).

Each structure is given as a SMILES string.

GST tagged truncated human mutant G2019S LRRK2, sequence (Q5S007 970-2527 G2019S): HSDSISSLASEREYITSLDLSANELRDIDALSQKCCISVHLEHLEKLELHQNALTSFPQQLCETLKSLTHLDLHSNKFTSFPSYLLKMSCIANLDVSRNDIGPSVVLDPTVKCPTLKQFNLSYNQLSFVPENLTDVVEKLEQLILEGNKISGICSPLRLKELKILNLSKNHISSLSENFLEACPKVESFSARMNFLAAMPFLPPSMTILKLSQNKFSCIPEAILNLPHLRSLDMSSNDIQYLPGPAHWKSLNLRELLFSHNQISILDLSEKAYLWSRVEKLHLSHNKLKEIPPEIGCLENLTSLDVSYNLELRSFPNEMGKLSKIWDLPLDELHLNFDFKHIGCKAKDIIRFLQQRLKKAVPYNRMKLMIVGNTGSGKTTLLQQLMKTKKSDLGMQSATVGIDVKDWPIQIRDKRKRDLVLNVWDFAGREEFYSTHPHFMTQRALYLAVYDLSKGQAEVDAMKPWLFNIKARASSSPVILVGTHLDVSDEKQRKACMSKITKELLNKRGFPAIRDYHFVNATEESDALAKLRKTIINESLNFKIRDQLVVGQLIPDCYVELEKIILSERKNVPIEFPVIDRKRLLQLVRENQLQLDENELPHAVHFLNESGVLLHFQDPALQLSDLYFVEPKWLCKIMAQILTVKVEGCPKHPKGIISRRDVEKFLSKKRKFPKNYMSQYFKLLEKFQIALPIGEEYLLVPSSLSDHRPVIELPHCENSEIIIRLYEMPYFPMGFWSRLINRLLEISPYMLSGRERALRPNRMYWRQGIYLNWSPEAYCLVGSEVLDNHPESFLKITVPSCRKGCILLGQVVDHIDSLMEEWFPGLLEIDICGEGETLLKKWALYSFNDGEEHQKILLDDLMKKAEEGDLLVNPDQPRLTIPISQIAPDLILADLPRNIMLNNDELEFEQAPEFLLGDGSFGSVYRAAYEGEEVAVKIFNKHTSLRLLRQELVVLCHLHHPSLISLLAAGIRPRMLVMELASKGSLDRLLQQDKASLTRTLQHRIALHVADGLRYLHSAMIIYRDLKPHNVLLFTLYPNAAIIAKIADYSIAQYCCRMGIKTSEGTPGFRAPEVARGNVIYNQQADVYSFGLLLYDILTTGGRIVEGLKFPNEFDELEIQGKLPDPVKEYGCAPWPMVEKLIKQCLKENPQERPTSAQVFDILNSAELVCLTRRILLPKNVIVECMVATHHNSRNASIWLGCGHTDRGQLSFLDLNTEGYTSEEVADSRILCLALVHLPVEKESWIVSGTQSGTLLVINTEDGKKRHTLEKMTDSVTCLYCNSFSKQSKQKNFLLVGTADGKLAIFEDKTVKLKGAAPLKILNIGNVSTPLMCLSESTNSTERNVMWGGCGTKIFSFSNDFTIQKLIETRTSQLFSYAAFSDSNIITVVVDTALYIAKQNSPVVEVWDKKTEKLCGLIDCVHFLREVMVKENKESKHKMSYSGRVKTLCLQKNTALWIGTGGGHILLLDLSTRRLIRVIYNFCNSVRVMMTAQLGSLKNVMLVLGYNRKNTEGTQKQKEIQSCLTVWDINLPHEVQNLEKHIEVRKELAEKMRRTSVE

One assay deals with GST tagged truncated human mutant G2019S LRRK2 (Homo sapiens (Human), UniProt Q5S007, G2019S). Description: LRRK2 Km ATP LanthaScreen Assay. Type of assay: biochemical. Particulars: G2019S LRRK2, 134 μM ATP (Km ATP), mean values. As to the method:
General Experimental Information: • Unless otherwise noted, all reactions are magnetically stirred. Unless otherwise noted, when diethyl ether is used in the experiments described below, it is Fisher ACS certified material and is stabilized with BHT. Unless otherwise noted, “concentrated” and/or “solvent removed under reduced pressure” means evaporating the solvent from a solution or mixture using a rotary evaporator or vacuum pump. Unless otherwise noted, flash chromatography is carried out on a Teledyne Isco (Lincoln, NE), Analogix (Burlington, WI), or Biotage (Stockholm, SWE) automated chromatography system using a commercially available cartridge as the column. Columns may be purchased from Teledyne Isco, Analogix, Biotage, Varian (Palo Alto, CA), or Supelco (Bellefonte, PA) and are usually filled with silica gel as the stationary phase. Reverse phase prep-HPLC conditions, where used, can be found at the end of each experimental section. Aqueous solutions were concentrated on a Genevac (Ipswich, ENG) or by freeze-drying/lyophilization. Unless otherwise noted, all LRRK2 pIC50 data presented in tables refers to the LRRK2 G2019S Km ATP LanthaScreen™ assay (Life Technologies Corp., Carlsbad, CA) that is described in the Biological Assay section.
The pIC50 values reported herein were measured as follows.
Biological Assay: LRRK2 Km ATP LanthaScreen™ Assay
Compound potency against LRRK2 kinase activity was determined using LanthaScreen™ technology from Life Technologies Corporation (Carlsbad, CA) using a GST20 tagged truncated human mutant G2019S LRRK2 in the presence of the fluorescein-labeled peptide substrate LRRKtide® (LRRK2 phosphorylated ezrin/radixin/moesin (ERM)), also from Life Technologies. The data presented for the Km ATP LanthaScreen™ Assay represents mean IC50 values based on several test results and may have reasonable deviations depending on the specific conditions and reagents used. Km is the Michaelis constant of an enzyme and is defined as the concentration of native substrate (ATP for a kinase) which permits the enzyme to achieve half Vmax (Vmax=rate of reaction when the enzyme is saturated with substrate). IC50 (half-maximal inhibitory concentration) represents the concentration of inhibitor required to inhibit LRRK2 kinase activity by 50%. Assays were performed in the presence of 134 μM ATP (Km ATP). Upon completion, the assay was stopped, and phosphorylated substrate detected with a terbium (Tb)-labeled anti-pERM antibody (cat. no. PV4898). The compound dose response was prepared by diluting a 10 mM stock of compound to a maximum concentration of 9.99 μM in 100% DMSO, followed by custom fold serial dilution in DMSO nine times. 20 nL of each dilution was spotted via a Labcyte Echo onto a 384-well black-sided plate (Corning 3575) followed by 15 μl of a 1.25 nM enzyme solution in 1× assay buffer (50 mM Tris pH 8.5, 10 mM MgCl2, 0.01% Brij-35, 1 mM EGTA, 2 mM dithiothreitol, 0.05 mM sodium orthovanadate). Following a 15-minute incubation period at RT, the kinase reaction was started with the addition of 5 μl of 400 nM fluorescein-labeled LRRKtide® (LRRK2 phosphorylated ezrin/radixin/moesin (ERM)) peptide substrate and 134 μM ATP solution in 1× assay buffer. The reaction was allowed to progress at ambient temperature for 90 minutes. The reaction was then stopped by the addition of 20 μl of TR-FRET Dilution Buffer (Life Technologies, Carlsbad, CA) containing 2 nM Tb-labeled anti-phospho LRRKtide® (LRRK2 phosphorylated ezrin/radixin/moesin (ERM)) antibody and 10 mM EDTA (Life Technologies, Carlsbad, CA). After an incubation period of 1 h at RT, the plate was read on an EnVision® multimode plate reader (Perkin Elmer, Waltham, MA) with an excitation wavelength of 337 nm (Laser) and a reading emission at both 520 and 495 nm. Compound IC50 values were interpolated from nonlinear regression best-fits of the log of the final compound concentration, plotted as a function of the 520/495-nm emission ratio using activity base “Abase”). […]
Consider `Cc1c(Nc2ncc3cc(Cl)c(C4CCN([C@H]5COC[C@H]5O)CC4)cc3n2)cnn1C12CC(C1)C2` (single isomer, unassigned) [Ex-2.27, (3S,4S) or (3R,4R) 4-[4-(2-{[1-(bicyclo[1.1.1]pentan-1-yl)-5-methyl-1H-pyrazol-4-yl]amino}-6-chloroquinazolin-7-yl)piperidin-1-yl]oxolan-3-ol], for which the “LRRK2 pIC50” value was determined as 8.87.
In the case of `Cc1c(Nc2ncc3cc(Cl)c(C4CCN([C@@H]5COC[C@@H]5O)CC4)cc3n2)cnn1C12CC(C1)C2` (single isomer, unassigned) [Ex-2.28, (3S,4S) or (3R,4R) 4-[4-(2-{[1-(bicyclo[1.1.1]pentan-1-yl)-5-methyl-1H-pyrazol-4-yl]amino}-6-chloroquinazolin-7-yl)piperidin-1-yl]oxolan-3-ol], the “LRRK2 pIC50” value was >9.20.
Consider `Cc1cc2cnc(Nc3cnn(C4CC4)c3Cl)nc2cc1C1CCN([C@]2(C)COC[C@@H]2O)CC1` (single isomer, unassigned) [Ex-2.37, (3S,4S) or (3R,4R) 4-(4-{2-[(5-chloro-1-cyclopropyl-1H-pyrazol-4-yl)amino]-6-methylquinazolin-7-yl}piperidin-1-yl)-4-methyloxolan-3-ol], for which the “LRRK2 pIC50” value was 7.78.
For the molecule `Cc1cc2cnc(Nc3cnn(C4CC4)c3C)nc2cc1C1CCN([C@@]2(C)COC[C@H]2O)CC1` (single isomer, unassigned) [Ex-2.38, (3S,4S) or (3R,4R) 4-(4-{2-[(1-cyclopropyl-5-methyl-1H-pyrazol-4-yl)amino]-6-methylquinazolin-7-yl}piperidin-1-yl)-4-methyloxolan-3-ol], the “LRRK2 pIC50” value is >9.20.
Same read-out and setting: the same measure for `Cc1cc2cnc(Nc3cnn(C4CC4)c3C)nc2cc1C1CCN([C@]2(C)COC[C@@H]2O)CC1` (single isomer, unassigned) [Ex-2.39, (3S,4S) or (3R,4R) 4-(4-{2-[(1-cyclopropyl-5-methyl-1H-pyrazol-4-yl)amino]-6-methylquinazolin-7-yl}piperidin-1-yl)-4-methyloxolan-3-ol]: 8.09.
For `OC1COCC1n1ncc(Nc2ncc3cc(Cl)c(C4CCN(C5COC5)CC4)cc3n2)c1Cl` (single isomer, unassigned) [Ex-2.47, (3S,4S) or (3R,4R) or (3S,4R) or (3R,4S) 4-[5-chloro-4-({6-chloro-7-[1-(oxetan-3-yl)piperidin-4-yl]quinazolin-2-yl}amino)-1H-pyrazol-1-yl]oxolan-3-ol], the “LRRK2 pIC50” value came to 9.11.
As for `Cc1c(Nc2ncc3cc(Cl)c(C4CCN(C5COCC5C#N)CC4)cc3n2)cnn1C1CC1` (single isomer, unassigned) [Ex-2.49, (3S,4S) or (3R,4R) or (3S,4R) or (3R,4S) 4-(4-{6-chloro-2-[(1-cyclopropyl-5-methyl-1H-pyrazol-4-yl)amino]quinazolin-7-yl}piperidin-1-yl)oxolane-3-carbonitrile], the “LRRK2 pIC50” value stood at 8.88.
In the case of `Cc1c(Nc2ncc3cc(Cl)c(C4CCN(C5COCC5C#N)CC4)cc3n2)cnn1C1CC1` (single isomer, unassigned) [Ex-2.50, (3S,4S) or (3R,4R) or (3S,4R) or (3R,4S) 4-(4-{6-chloro-2-[(1-cyclopropyl-5-methyl-1H-pyrazol-4-yl)amino]quinazolin-7-yl}piperidin-1-yl)oxolane-3-carbonitrile], the “LRRK2 pIC50” value amounted to 9.13.
Take `Cc1cc(Nc2ncc3cc(Cl)c(C4CCN([C@H]5COC[C@H]5O)CC4)cc3n2)sn1` (single isomer, unassigned) [Ex-2.55, (3S,4S) or (3R,4R)4-(4-{6-chloro-2-[(3-methyl-l,2-thiazol-5-yl)amino]quinazolin-7-yl}piperidin-1-yl)oxolan-3-ol]: the “LRRK2 pIC50” value was >9.20.

The same assay, now with this note: G2019S LRRK2, 134 μM ATP (Km ATP), mean values; read-out: LRRK2 pIC50 (converted).
Turning to `Cc1c(Nc2ncc3cc(Cl)c(C4CCN(C5COC5)CC4)cc3n2)cnn1C1CCOC1` (single isomer, unassigned) [Ex-2.23, (S) or (R) 6-chloro-N-[5-methyl-1-(oxolan-3-yl)-1H-pyrazol-4-yl]-7-[1-(oxetan-3-yl)piperidin-4-yl]quinazolin-2-amine], the IC50 was 1.15 nM.
On the same count and under the same terms, then `Cc1c(Nc2ncc3cc(Cl)c(C4CCN(C5COC5)CC4)cc3n2)cnn1C1CCOC1` (single isomer, unassigned) [Ex-2.24, (S) or (R) 6-chloro-N-[5-methyl-1-(oxolan-3-yl)-1H-pyrazol-4-yl]-7-[1-(oxetan-3-yl)piperidin-4-yl]quinazolin-2-amine], with 0.741 nM; and `Cc1c(Nc2ncc3cc(Cl)c(C4CCN(C5(C)COC5)CC4)cc3n2)cnn1C1CCOC1` (single isomer, unassigned) [Ex-2.25, (S) or (R) 6-chloro-7-[1-(3-methyloxetan-3-yl)piperidin-4-yl]-N-[5-methyl-1-(oxolan-3-yl)-1H-pyrazol-4-yl]quinazolin-2-amine], with 0.891 nM.
For the molecule `Cc1c(Nc2ncc3cc(Cl)c(C4CCN(C5(C)COC5)CC4)cc3n2)cnn1C1CCOC1` (single isomer, unassigned) [Ex-2.26, (S) or (R) 6-chloro-7-[1-(3-methyloxetan-3-yl)piperidin-4-yl]-N-[5-methyl-1-(oxolan-3-yl)-1H-pyrazol-4-yl]quinazolin-2-amine], the IC50 is < 0.631 nM.
With `Cc1c(Nc2ncc3cc(Cl)c(C4CCN(C5(C)COC5)CC4)cc3n2)cnn1C1CC1(F)F` (single isomer, unassigned) [Ex-2.29, (S) or (R) 6-chloro-N-[1-(2,2-difluorocyclopropyl)-5-methyl-1H-pyrazol-4-yl]-7-[1-(3-methyloxetan-3-yl)piperidin-4-yl]quinazolin-2-amine], the IC50 was 1.66 nM.
In the case of `Cc1c(Nc2ncc3cc(Cl)c(C4CCN(C5(C)COC5)CC4)cc3n2)cnn1C1CC1(F)F` (single isomer, unassigned) [Ex-2.30, (S) or (R) 6-chloro-N-[1-(2,2-difluorocyclopropyl)-5-methyl-1H-pyrazol-4-yl]-7-[1-(3-methyloxetan-3-yl)piperidin-4-yl]quinazolin-2-amine], the IC50 was 0.646 nM.
As to `Cc1cc2cnc(Nc3cnn(C4CC4(F)F)c3Cl)nc2cc1C1CCN([C@H]2COC[C@H]2O)CC1` (single isomer, unassigned) [Ex-2.33, (R)(3S,4S) or (R)(3R,4R) or (S)(3S,4S) or (S)(3R,4R) 4-[4-(2-{[5-chloro-1-(2,2-difluorocyclopropyl)-1H-pyrazol-4-yl]amino}-6-methylquinazolin-7-yl)piperidin-1-yl]oxolan-3-ol], the IC50 was < 0.631 nM.
As to `C[C@]1(N2CCC(c3cc4nc(Nc5cnn(C67CC(C6)C7)c5)ncc4cc3Cl)CC2)COC[C@H]1O` (single isomer, unassigned) [Ex-2.35, (3S,4S) or (3R,4R) 4-[4-(2-{[1-(bicyclo[1.1.1]pentan-1-yl)-1H-pyrazol-4-yl]amino}-6-chloroquinazolin-7-yl)piperidin-1-yl]-4-methyloxolan-3-ol], the IC50 was 3.89 nM.
With `Cc1cc2cnc(Nc3cnn(C4CC4)c3Cl)nc2cc1C1CCN([C@@]2(C)COC[C@H]2O)CC1` (single isomer, unassigned) [Ex-2.36, (3S,4S) or (3R,4R) 4-(4-{2-[(5-chloro-1-cyclopropyl-1H-pyrazol-4-yl)amino]-6-methylquinazolin-7-yl}piperidin-1-yl)-4-methyloxolan-3-ol], the IC50 was < 0.631 nM.
